Results from article PMC9025901, “New Genetic Bomb Trigger: Design, Synthesis, Molecular Dynamics Simulation, and Biological Evaluation of Novel BIBR1532-Related Analogs Targeting Telomerase against Non-Small Cell Lung Cancer” (Pharmaceuticals, 2022).

Legend:
UO-31 = assay: NCI-60 in vitro anticancer screening (SRB); conditions: UO-31, Renal cancer; 10 µM, 48 h
Procedure: (§1) The cancer screening panel’s human tumor 60 cell lines were cultured in the RPMI 1640 medium with (5%) fetal bovine serum and (2 mM) L-glutamine. For a screening experiment, cells were injected onto 96-well microtiter plates (100 µL), with plating densities varying from 5 to 40 × 10^3 cells per well, depending on different cell lines’ doubling times. Before introducing experimental drugs, the microtiter plates were incubated overnight at 37 °C, 95% air, 5% CO2, and 100% relative humidity after cell injection. TCA was employed to keep each cell line in place overnight, resembling a computation of the cell population for every cell line at the time of the addition of the drug. The experimental drugs were chilled after solubilization in DMSO at 400 times the final maximum test concentration. At the moment of the addition of the drug, the aliquot of the frozen concentrate was thawed and diluted to twice the required final maximum concentration with the complete medium containing (50 µg/mL) gentamicin. […] The bound dye was then solubilized with a (10 mM) trizma base, and absorbance was calculated at 515 nm on an automatic reader. […] The % growth of treated cells was established using seven absorbance measurements and compared to untreated control cells [57].

OVCAR-4 = assay: NCI-60 in vitro anticancer screening (SRB); conditions: OVCAR-4, Ovarian cancer; 10 µM, 48 h
Procedure: as §1

CCRF-CEM = assay: NCI-60 in vitro anticancer screening (SRB); conditions: Leukemia, 10 µM, 48 h
Procedure: (§2) The cancer screening panel’s human tumor 60 cell lines were cultured in the RPMI 1640 medium with (5%) fetal bovine serum and (2 mM) L-glutamine. For a screening experiment, cells were injected onto 96-well microtiter plates (100 µL), with plating densities varying from 5 to 40 × 10^3 cells per well, depending on different cell lines’ doubling times. Before introducing experimental drugs, the microtiter plates were incubated overnight at 37 °C, 95% air, 5% CO2, and 100% relative humidity after cell injection. TCA was employed to keep each cell line in place overnight, resembling a computation of the cell population for every cell line at the time of the addition of the drug. The experimental drugs were chilled after solubilization in DMSO at 400 times the final maximum test concentration. At the moment of the addition of the drug, the aliquot of the frozen concentrate was thawed and diluted to twice the required final maximum concentration with the complete medium containing (50 µg/mL) gentamicin. The required final concentration of the drug (10 µM) was reached by adding 100 µL aliquots of these definite dilutions of the drug to suitable microtiter wells previously holding a medium of 100 µL. […] The bound dye was then solubilized with a (10 mM) trizma base, and absorbance was calculated at 515 nm on an automatic reader. […]

OVCAR-3 = assay: NCI-60 in vitro anticancer screening (SRB); conditions: OVCAR-3, Ovarian cancer; 10 µM, 48 h
Procedure: as §1

ACHN = assay: NCI-60 in vitro anticancer screening (SRB); conditions: Renal cancer, 10 µM, 48 h
Procedure: as §2

MOLT-4 = assay: NCI-60 in vitro anticancer screening (SRB); conditions: MOLT-4, Leukemia; 10 µM, 48 h
Procedure: as §1

MDA-MB-468 = assay: NCI-60 in vitro anticancer screening (SRB); conditions: MDA-MB-468, Breast cancer; 10 µM, 48 h
Procedure: as §1

KM12 = assay: NCI-60 in vitro anticancer screening (SRB); conditions: KM12, Colon cancer; 10 µM, 48 h
Procedure: as §1

SK-MEL-2 = assay: NCI-60 in vitro anticancer screening (SRB); conditions: SK-MEL-2, Melanoma; 10 µM, 48 h
Procedure: as §2

SR = assay: NCI-60 in vitro anticancer screening (SRB); conditions: Leukemia, 10 µM, 48 h
Procedure: as §1

HOP-62 = assay: NCI-60 in vitro anticancer screening (SRB); conditions: HOP-62, Lung cancer (NSCLC); 10 µM, 48 h
Procedure: as §1

NCI-H226 = assay: NCI-60 in vitro anticancer screening (SRB); conditions: NCI-H226, Lung cancer (NSCLC); 10 µM, 48 h
Procedure: as §1

DU-145 = assay: NCI-60 in vitro anticancer screening (SRB); conditions: DU-145, Prostate cancer; 10 µM, 48 h
Procedure: as §1

PC-3 = assay: NCI-60 in vitro anticancer screening (SRB); conditions: PC-3, Prostate cancer; 10 µM, 48 h
Procedure: as §1

SF-268 = assay: NCI-60 in vitro anticancer screening (SRB); conditions: SF-268, CNS cancer; 10 µM, 48 h
Procedure: as §1

M14 = assay: NCI-60 in vitro anticancer screening (SRB); conditions: M14, Melanoma; 10 µM, 48 h
Procedure: as §2

OVCAR-5 = assay: NCI-60 in vitro anticancer screening (SRB); conditions: OVCAR-5, Ovarian cancer; 10 µM, 48 h
Procedure: as §1

HL-60(TB) = assay: NCI-60 in vitro anticancer screening (SRB); type: cell-based, human; conditions: Leukemia, 10 µM, 48 h
MDA-MB-231/ATCC = assay: NCI-60 in vitro anticancer screening (SRB); conditions: Breast cancer, 10 µM, 48 h
Procedure: as §2

UACC-257 = assay: NCI-60 in vitro anticancer screening (SRB); conditions: UACC-257, Melanoma; 10 µM, 48 h
Procedure: as §1

NCI-H460 = assay: NCI-60 in vitro anticancer screening (SRB); conditions: NCI-H460, Lung cancer (NSCLC); 10 µM, 48 h
Procedure: as §1

[1] = target: T1, telomerase inside living cancer cells NCI-H23 (Homo sapiens, UniProt O14746); assay: Living-cell TRAP assay, NCI-H23; type: cell-based; conditions: percent of control cells, 10 µM, 48 h
T1 construct: host or cells: NCI-H23
Procedure: (§3) The Telomeric Repeat Amplification Protocol (TRAP) [61] was used to evaluate the activity of telomerase, with some changes that we have previously described [62, 63]. A549 cells (human epithelial cell lung carcinoma, ATCC, Manassas, VA) were lysed in (10 mM) Tris-HCl, pH 7.5, (1 mM) EGTA, (1 mM) MgCl2, (5 mM) 2-mercaptoethanol, (0.1 mM) PMSF, (0.5%) CHAPS, and (10%) glycerol (Sigma-Aldrich, St. Louis, MO, USA) and centrifugation. The supernatants were kept at -80 °C. The BCA-1 Protein Assay Kit was used to assess the protein concentration in cell extracts (Sigma-Aldrich, St. Louis, MO, USA). […] To inactivate telomerase, the cells were elongated for 30 min at 37 °C and 10 min at 96 °C. Copy CX-primer was added to the elongation mixture along with 0.1 μL ([NT]) and 2.5 units Taq-polymerase, followed by the following PCR: 94 °C for 5 min; 30 cycles of 94 °C for 30 s, 50 °C for 30 s, and 72 °C for 40 s, and 72 °C for 5 min. TBE buffer and (12%) nondenaturing PAAG electrophoresis were used to visualize the PCR product. 10 μL of each sample was placed in each well of gel comb. The gels were stained with the SYBR Green I (Invitrogen, Grand Island, NY, USA), then photographed under the UV light in ChemiDocTM XRS imaging system and analyzed with GelAnalyzer 2010.

HCC-2998 = assay: NCI-60 in vitro anticancer screening (SRB); conditions: HCC-2998, Colon cancer; 10 µM, 48 h
Procedure: as §1

HCT-15 = assay: NCI-60 in vitro anticancer screening (SRB); conditions: HCT-15, Colon cancer; 10 µM, 48 h
Procedure: as §1

A498 = assay: NCI-60 in vitro anticancer screening (SRB); conditions: A498, Renal cancer; 10 µM, 48 h
Procedure: as §2

SW-620 = assay: NCI-60 in vitro anticancer screening (SRB); conditions: SW-620, Colon cancer; 10 µM, 48 h
Procedure: as §1

OVCAR-8 = assay: NCI-60 in vitro anticancer screening (SRB); conditions: OVCAR-8, Ovarian cancer; 10 µM, 48 h
Procedure: as §1

SF-539 = assay: NCI-60 in vitro anticancer screening (SRB); conditions: SF-539, CNS cancer; 10 µM, 48 h
Procedure: as §1

[2] = target: T2, telomerase inside living cancer cells HCC44 (Homo sapiens, UniProt O14746); assay: Living-cell TRAP assay, HCC44; type: cell-based; conditions: percent of control cells, 10 µM, 48 h
T2 construct: host or cells: HCC44
T2 sequence (O14746 whole entry): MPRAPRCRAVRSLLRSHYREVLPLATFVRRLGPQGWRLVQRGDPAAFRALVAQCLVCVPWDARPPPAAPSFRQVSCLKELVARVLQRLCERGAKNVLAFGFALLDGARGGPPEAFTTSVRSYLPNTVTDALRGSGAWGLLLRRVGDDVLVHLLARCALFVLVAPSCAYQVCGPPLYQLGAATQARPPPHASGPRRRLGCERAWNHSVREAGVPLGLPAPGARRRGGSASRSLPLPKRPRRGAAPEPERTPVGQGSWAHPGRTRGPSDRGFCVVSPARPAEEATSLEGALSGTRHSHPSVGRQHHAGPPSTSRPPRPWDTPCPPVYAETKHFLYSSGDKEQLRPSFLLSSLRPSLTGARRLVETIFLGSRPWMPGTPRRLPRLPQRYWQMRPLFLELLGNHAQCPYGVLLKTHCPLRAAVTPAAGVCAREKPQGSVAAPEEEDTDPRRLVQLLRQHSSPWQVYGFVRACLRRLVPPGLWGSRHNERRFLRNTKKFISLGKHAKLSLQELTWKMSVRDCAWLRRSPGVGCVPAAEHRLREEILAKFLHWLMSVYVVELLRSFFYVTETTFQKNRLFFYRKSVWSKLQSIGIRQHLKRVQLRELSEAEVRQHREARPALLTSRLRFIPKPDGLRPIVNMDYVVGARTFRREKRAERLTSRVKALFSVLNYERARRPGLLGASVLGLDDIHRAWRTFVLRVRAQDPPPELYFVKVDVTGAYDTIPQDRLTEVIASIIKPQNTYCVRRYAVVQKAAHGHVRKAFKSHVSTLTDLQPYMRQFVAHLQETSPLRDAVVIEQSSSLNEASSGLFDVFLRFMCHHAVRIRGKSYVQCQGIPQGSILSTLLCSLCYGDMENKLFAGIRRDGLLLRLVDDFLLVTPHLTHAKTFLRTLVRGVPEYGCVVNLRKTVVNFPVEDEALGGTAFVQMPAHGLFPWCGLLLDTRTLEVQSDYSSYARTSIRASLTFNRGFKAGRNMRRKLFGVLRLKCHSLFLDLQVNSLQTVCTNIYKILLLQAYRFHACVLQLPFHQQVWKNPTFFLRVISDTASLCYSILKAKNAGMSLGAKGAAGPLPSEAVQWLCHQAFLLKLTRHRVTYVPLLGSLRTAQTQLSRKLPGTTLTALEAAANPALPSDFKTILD
T2 sequence (O60832 whole entry partner): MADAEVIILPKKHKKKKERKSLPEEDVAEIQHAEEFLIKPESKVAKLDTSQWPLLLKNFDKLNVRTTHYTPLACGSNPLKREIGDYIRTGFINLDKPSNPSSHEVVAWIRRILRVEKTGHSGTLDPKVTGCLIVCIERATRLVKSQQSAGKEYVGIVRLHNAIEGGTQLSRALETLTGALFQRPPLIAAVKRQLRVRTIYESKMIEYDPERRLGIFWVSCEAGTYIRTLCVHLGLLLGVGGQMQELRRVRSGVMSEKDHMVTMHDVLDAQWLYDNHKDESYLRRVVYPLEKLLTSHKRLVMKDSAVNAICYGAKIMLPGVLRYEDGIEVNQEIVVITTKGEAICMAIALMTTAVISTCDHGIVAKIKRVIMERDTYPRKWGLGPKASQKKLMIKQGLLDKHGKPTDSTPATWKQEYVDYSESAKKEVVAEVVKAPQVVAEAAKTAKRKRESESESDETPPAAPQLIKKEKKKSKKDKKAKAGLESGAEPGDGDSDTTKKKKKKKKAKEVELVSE
T2 sequence (Q9NX24 whole entry partner): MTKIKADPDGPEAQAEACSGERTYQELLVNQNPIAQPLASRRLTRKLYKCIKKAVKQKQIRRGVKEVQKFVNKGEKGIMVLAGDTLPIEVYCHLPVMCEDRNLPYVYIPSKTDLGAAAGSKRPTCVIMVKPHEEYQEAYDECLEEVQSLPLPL
T2 sequence (Q9NPE3 whole entry partner): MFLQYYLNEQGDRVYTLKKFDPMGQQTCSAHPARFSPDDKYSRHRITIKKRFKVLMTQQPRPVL
T2 sequence (Q9NY12 whole entry partner): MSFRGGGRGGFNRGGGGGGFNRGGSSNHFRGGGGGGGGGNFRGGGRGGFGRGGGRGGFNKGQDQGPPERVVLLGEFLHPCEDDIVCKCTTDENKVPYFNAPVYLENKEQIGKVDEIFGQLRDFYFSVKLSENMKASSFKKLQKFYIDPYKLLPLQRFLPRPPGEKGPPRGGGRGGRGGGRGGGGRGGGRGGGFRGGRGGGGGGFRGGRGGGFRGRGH
T2 sequence (Q9BUR4 whole entry partner): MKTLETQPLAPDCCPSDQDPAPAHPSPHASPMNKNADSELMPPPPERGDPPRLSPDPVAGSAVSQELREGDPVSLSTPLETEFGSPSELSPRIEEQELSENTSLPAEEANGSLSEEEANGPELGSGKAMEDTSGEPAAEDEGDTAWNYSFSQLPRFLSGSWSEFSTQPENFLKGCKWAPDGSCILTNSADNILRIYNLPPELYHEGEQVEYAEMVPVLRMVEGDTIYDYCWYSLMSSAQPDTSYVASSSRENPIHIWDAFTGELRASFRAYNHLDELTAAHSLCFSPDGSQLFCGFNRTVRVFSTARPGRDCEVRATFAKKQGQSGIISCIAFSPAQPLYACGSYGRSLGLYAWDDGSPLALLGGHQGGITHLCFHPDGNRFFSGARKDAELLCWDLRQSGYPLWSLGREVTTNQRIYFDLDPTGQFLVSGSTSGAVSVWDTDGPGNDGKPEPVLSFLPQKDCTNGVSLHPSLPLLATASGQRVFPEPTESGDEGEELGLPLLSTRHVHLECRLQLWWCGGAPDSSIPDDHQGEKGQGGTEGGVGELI
Procedure: as §3

T1 sequence (O14746 whole entry): as the sequence (O14746 whole entry) above
T1 sequence (O60832 whole entry partner): as the sequence (O60832 whole entry partner) above
T1 sequence (Q9NX24 whole entry partner): as the sequence (Q9NX24 whole entry partner) above
T1 sequence (Q9NPE3 whole entry partner): as the sequence (Q9NPE3 whole entry partner) above
T1 sequence (Q9NY12 whole entry partner): as the sequence (Q9NY12 whole entry partner) above
T1 sequence (Q9BUR4 whole entry partner): as the sequence (Q9BUR4 whole entry partner) above

N#C/C(=C\c1ccc2ccccc2c1)C(=O)Nc1sc2c(c1C#N)CCCC2 [Compound 36b, (2E)-2-Cyano-N-(3-cyano-4,5,6,7-tetrahydro-1-benzothiophen-2-yl)-3-(naphthalen-2-yl)prop-2-enamide] was tested, and the “Growth Percent” value (UO-31) was 81.95%, the “Growth Percent” value (OVCAR-4) was 100.16% and the “Growth Percent” value (CCRF-CEM) was 104.69%. The “Growth Percent” value (OVCAR-3) was 98.78%, the “Growth Percent” value (ACHN) was 103.29% and the “Growth Percent” value (MOLT-4) was 100.37%. For the same compound, the “Growth Percent” value (MDA-MB-468) was 90.36%, the “Growth Percent” value (KM12) was 101.43% and the “Growth Percent” value (SK-MEL-2) was 100.31%. For the same compound, the “Growth Percent” value (SR) was 95.72%, the “Growth Percent” value (HOP-62) was 98.36% and the “Growth Percent” value (NCI-H226) was 89.78%. The “Growth Percent” value (DU-145) was 99.89%, the “Growth Percent” value (PC-3) was 104.77% and the “Growth Percent” value (SF-268) was 104.45%. The “Growth Percent” value (M14) was 94.57%, the “Growth Percent” value (OVCAR-5) was 104.98% and the “Growth Percent” value (HL-60(TB)) was 99.47%. For the same compound, the “Growth Percent” value (MDA-MB-231/ATCC) was 92.15%, the “Growth Percent” value (UACC-257) was 102.32% and the “Growth Percent” value (NCI-H460) was 102.88%. For the same compound, the “% Telomerase Activity in Cancer Cells” value [1] was 25.1 ± 3.2%, the “Growth Percent” value (HCC-2998) was 114.98% and the “Growth Percent” value (HCT-15) was 99.95%. The “Growth Percent” value (A498) was 99.38%, the “Growth Percent” value (SW-620) was 103.69% and the “Growth Percent” value (OVCAR-8) was 102.91%. For the same compound, the “Growth Percent” value (SF-539) was 98.71% and the “% Telomerase Activity in Cancer Cells” value [2] was 54.4 ± 4.4%.
